Measurements taken from PubChem BioAssay AID2060621 (Molecular Pharmacology Branch, DTP, NCI, 2025).

Tested on: 324938-238-R-J1-PDC complex spheroids viability
Assay: Anticancer human tumor 324938-238-R-J1-PDC patient-derived bladder carcinoma cell line growth inhibition [CLK]
Settings: for IC50: curve of first compound; for viability, T/C: stronger effect = lower value
Method in brief: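 Multi-cell-type spheroids combined patient-derived tumor cells with HUVEC endothelial cells and human mesenchymal stem cells. Paired agents were dosed in half-log steps down from about clinical Cmax, or from 10 microM where Cmax was unknown.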
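Also: viability read after seven days of drug exposure.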
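For viability, T/C in this document: 100% = DMSO vehicle control wells.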

IC50 (second compound 0.0316 µM): 60.8 nM | IC50 (second compound 0.1 µM): < 9.49 nM | IC50 (second compound 0.316 µM): < 9.49 nM | IC50 (second compound 1 µM): < 9.49 nM | IC50 (second compound 3.16 µM): < 9.49 nM | IC50 (second compound 10 µM): < 9.49 nM
SMILES: NC(=O)C(=Cn1cnc(-c2cc(C(F)(F)F)cc(C(F)(F)F)c2)n1)c1cncnc1 + CNC(=O)c1ccc(Nc2nc(OC3CCCC3)c3c(-c4ccc5nc(C)oc5c4)c[nH]c3n2)c(OC)c1
viability, T/C (second compound 0.0316 µM, first compound 0.00949 µM): 67.1% | viability, T/C (second compound 0.0316 µM, first compound 0.03 µM): 74.3% | viability, T/C (second compound 0.0316 µM, first compound 0.0949 µM): 36.9% | viability, T/C (second compound 0.0316 µM, first compound 0.3 µM): 14.3% | viability, T/C (second compound 0.0316 µM, first compound 0.949 µM): 8.38% | viability, T/C (second compound 0.0316 µM, first compound 3 µM): 3.32% | viability, T/C (second compound 0.1 µM, first compound 0.00949 µM): 21.3% | viability, T/C (second compound 0.1 µM, first compound 0.03 µM): 24.6% | viability, T/C (second compound 0.1 µM, first compound 0.0949 µM): 16.9% | viability, T/C (second compound 0.1 µM, first compound 0.3 µM): 12.7% | viability, T/C (second compound 0.1 µM, first compound 0.949 µM): 8.37% | viability, T/C (second compound 0.1 µM, first compound 3 µM): 3.77% | viability, T/C (second compound 0.316 µM, first compound 0.00949 µM): 15.7% | viability, T/C (second compound 0.316 µM, first compound 0.03 µM): 15.5% | viability, T/C (second compound 0.316 µM, first compound 0.0949 µM): 13.7% | viability, T/C (second compound 0.316 µM, first compound 0.3 µM): 7.83% | viability, T/C (second compound 0.316 µM, first compound 0.949 µM): 3.16% | viability, T/C (second compound 0.316 µM, first compound 3 µM): 2.69% | viability, T/C (second compound 1 µM, first compound 0.00949 µM): 12.9% | viability, T/C (second compound 1 µM, first compound 0.03 µM): 12.8% | viability, T/C (second compound 1 µM, first compound 0.0949 µM): 9.03% | viability, T/C (second compound 1 µM, first compound 0.3 µM): 5.74% | viability, T/C (second compound 1 µM, first compound 0.949 µM): 3.19% | viability, T/C (second compound 1 µM, first compound 3 µM): 1% | viability, T/C (second compound 3.16 µM, first compound 0.00949 µM): 16.2% | viability, T/C (second compound 3.16 µM, first compound 0.03 µM): 14.1% | viability, T/C (second compound 3.16 µM, first compound 0.0949 µM): 8.67% | viability, T/C (second compound 3.16 µM, first compound 0.3 µM): 4.86% | viability, T/C (second compound 3.16 µM, first compound 0.949 µM): 2.59% | viability, T/C (second compound 3.16 µM, first compound 3 µM): 1.1% | viability, T/C (second compound 10 µM, first compound 0.00949 µM): 14.4% | viability, T/C (second compound 10 µM, first compound 0.03 µM): 13% | viability, T/C (second compound 10 µM, first compound 0.0949 µM): 9.72% | viability, T/C (second compound 10 µM, first compound 0.3 µM): 5.02% | viability, T/C (second compound 10 µM, first compound 0.949 µM): 2.24% | viability, T/C (second compound 10 µM, first compound 3 µM): 0.98%
